Test results published in patent EP1490333B1, “NEW ATORVASTATIN SALTS AND PHARMACEUTICAL COMPOSITIONS CONTAINING THEM” (Richter Gedeon Nyrt., priority 2002, dated 2003).
Counter-ions that a name gives are not always drawn.

Tests used:
[1] = Specific surface of the salts; format: physicochemical
[2] = tested on: Caco-2 human epithelial cells; settings: for absorption of atorvastatin: microtablets of the three basic salts placed on the mono layers, compared with each other, Figure 1
Procedure: The essence of the method is, that microtablets are pressed from the drug substances to be examined without adding auxiliaries. The microtablets are made under the same conditions with the same pressing force, therefor the rate of penetration through cell-layer is determined by the intrinsic features of the examined substances.
In the model the absorption of atorvastatin through human epithelial (Caco-2) mono cell-layer was measured in such a way, that the microtablets prepared from the test compounds were placed on the mono cell-layers in the vessels containing physiological saline, then the time dependent amount of the test substance, which passed through the mono cell-layer was determined from the saline solution of the other side of the mono cell-layer by chromatography.
During the experiments 4 µmol base equivalent amounts were placed on the mono cell-layers from the microtablets.
During the experiments the reference compounds were placed on the mono cell-layer (luminal side, which in vivo equals the inner side of the intestine) in solution, the amount of the test substance, which passed through the mono cell-layer (abluminal side, which in vivo equals the blood circulation) was determined by chromatography, then the absorption coefficient characteristic for the absorption of the compounds was calculated (the English abbreviation used in the literature: Papp value).
At the end of the absorption experiments the intactness of the epithelial mono cell-layers was microscopically checked after tainting with toluidine blue. The amount of the test and reference compounds in the samples was determined by HPLC.

[3] = in vivo; cited from earlier work

CC(C)c1c(C(=O)Nc2ccccc2)c(-c2ccccc2)c(-c2ccc(F)cc2)n1CC[C@@H](O)C[C@@H](O)CC(=O)O [atorvastatin hemi-calcium salt, reference compound]
specific surface [1]: 8.0 m^2/g

CC(C)c1c(C(=O)Nc2ccccc2)c(-c2ccccc2)c(-c2ccc(F)cc2)n1CCC(O)CC(O)CC(=O)O.N=C(N)NCCCC(N)C(=O)O [L-arginine salt, Atorvastatin L-arginine salt]
absorption of atorvastatin [2]: no difference

CC(C)c1c(C(=O)Nc2ccccc2)c(-c2ccccc2)c(-c2ccc(F)cc2)n1CC[C@@H](O)C[C@@H](O)CC(=O)O.NCCCC[C@H](N)C(=O)O [atorvastatin L-lysine salt]
absorption (penetration) of atorvastatin in Caco-2 model ([2]; compared with polymorph I (crystal form I) of hemi-calcium salt): significantly better | absorption of atorvastatin [2]: no difference | appearance of atorvastatin on the abluminal side of the mono cell-layers ([2]; microtablets, compared with microtablets of polymorph I of hemi-calcium salt, Figure 2): significantly faster | specific surface [1]: 1.1 m^2/g

CC(C)c1c(C(=O)Nc2ccccc2)c(-c2ccccc2)c(-c2ccc(F)cc2)n1CC[C@@H](O)C[C@@H](O)CC(=O)O [atorvastatin hemi-calcium salt, (3R,5R)-7-[3-phenyl-4-[(phenylamino)carbonyl]-2-(4-fluorophenyl)-5-(1-methyl-ethyl)-pyrrol-1-yl]-3,5-dihydroxy-heptanoic acid]
part of the applied dose absorbed [3]: about 30%
